In data set [1] the target is Neuronal acetylcholine receptor; alpha3/beta4 (Homo sapiens, UniProt P30926+P32297). The data set can be described thus: Displacement of [3H]epibatidine from human alpha3beta4 nAChR expressed in IMR32 cell membrane by microbeta scintillation counting method. It is filed as cell membranes, IMR-32.
The subject of another data set is Rattus norvegicus. The data set can be described thus: Antidepressant activity in Wistar rat assessed as immobility time at 3.0 mg/kg, po measured for 5 mins by forced swim test (reference value: 241.9 to 281.6 sec). It is filed as functional.
In data set [2] the target is Neuronal acetylcholine receptor; alpha4/beta2 (Rattus norvegicus, UniProt P09483+P12390). The data set can be described thus: In vivo receptor occupancy at alpha4beta2 nAChR in Wistar rat assessed as plasma concentration pretreated for 15 mins followed by non radiolabelled ZW-104 tracer treatment and measured after 45 mins by LC-MS/MS analysis. Format: functional, organism-based.

Data set [3] can be described thus: Apparent permeability in human Caco2 cells. It is filed as ADME, cell-based. The following applies: caco-2.
The next data set has as its system Bone marrow cell. The data set can be described thus: Genotoxicity in mouse bone marrow cells assessed as non clastogenic by micronucleus assay. Format: toxicity, cell-based.
The target in a further data set is T1, Cytochrome P450 1A2 (Homo sapiens, UniProt P05177).
T1 sequence (P05177 whole entry): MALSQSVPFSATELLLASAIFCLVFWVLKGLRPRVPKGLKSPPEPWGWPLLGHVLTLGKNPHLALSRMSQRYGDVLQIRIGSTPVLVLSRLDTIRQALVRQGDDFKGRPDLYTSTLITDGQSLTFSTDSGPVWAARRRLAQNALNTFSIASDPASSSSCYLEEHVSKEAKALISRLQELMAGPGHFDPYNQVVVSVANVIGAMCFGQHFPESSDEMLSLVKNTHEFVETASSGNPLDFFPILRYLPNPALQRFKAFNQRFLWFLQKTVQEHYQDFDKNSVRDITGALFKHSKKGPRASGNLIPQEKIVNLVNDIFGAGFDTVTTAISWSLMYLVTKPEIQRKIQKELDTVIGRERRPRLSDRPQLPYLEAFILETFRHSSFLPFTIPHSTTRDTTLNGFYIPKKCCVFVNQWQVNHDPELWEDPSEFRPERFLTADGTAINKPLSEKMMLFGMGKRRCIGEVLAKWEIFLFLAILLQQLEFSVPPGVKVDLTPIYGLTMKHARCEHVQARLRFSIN
The data set can be described thus: Induction of CYP1A2 (unknown origin). It is filed as ADME.

The target in data set [4] is T2, Solute carrier family 22 member 6 (Homo sapiens, UniProt Q4U2R8).
T2 sequence (Q4U2R8 whole entry): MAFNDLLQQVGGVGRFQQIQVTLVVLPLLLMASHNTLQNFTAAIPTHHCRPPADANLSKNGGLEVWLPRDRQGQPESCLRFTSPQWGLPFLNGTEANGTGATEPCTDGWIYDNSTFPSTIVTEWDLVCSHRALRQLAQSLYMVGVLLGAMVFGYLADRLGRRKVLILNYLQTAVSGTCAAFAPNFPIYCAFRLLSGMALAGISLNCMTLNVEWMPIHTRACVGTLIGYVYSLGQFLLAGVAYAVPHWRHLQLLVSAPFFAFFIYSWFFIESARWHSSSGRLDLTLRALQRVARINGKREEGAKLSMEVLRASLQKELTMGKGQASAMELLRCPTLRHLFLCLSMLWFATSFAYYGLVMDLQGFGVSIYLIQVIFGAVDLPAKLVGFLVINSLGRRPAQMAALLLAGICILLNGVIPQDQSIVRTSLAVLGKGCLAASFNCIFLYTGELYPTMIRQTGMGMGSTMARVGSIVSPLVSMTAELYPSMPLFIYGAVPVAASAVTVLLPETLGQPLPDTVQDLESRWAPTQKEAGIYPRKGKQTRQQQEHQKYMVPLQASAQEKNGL
The data set can be described thus: Inhibition of OAT1 (unknown origin).

The target in data set [5] is T3, Organic anion transporter 3 (Homo sapiens, UniProt Q8TCC7).
T3 sequence (Q8TCC7 whole entry): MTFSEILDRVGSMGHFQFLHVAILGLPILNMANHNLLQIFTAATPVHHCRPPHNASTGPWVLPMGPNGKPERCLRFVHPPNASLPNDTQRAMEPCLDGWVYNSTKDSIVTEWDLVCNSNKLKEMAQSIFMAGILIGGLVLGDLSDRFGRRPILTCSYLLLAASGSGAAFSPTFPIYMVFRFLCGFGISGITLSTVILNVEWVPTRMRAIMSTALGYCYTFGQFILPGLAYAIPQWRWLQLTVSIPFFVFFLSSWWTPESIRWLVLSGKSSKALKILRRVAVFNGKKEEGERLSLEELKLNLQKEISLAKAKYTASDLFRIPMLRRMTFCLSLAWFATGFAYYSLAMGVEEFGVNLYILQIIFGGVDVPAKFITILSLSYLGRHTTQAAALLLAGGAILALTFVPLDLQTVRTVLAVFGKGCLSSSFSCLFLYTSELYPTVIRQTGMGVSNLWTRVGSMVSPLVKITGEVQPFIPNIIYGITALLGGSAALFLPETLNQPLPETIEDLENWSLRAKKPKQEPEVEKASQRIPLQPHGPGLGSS
The data set can be described thus: Inhibition of OAT3 (unknown origin).

Bounds are passed on as bounds.

Neuronal acetylcholine receptor; alpha3/beta4, sequence (P30926 whole entry): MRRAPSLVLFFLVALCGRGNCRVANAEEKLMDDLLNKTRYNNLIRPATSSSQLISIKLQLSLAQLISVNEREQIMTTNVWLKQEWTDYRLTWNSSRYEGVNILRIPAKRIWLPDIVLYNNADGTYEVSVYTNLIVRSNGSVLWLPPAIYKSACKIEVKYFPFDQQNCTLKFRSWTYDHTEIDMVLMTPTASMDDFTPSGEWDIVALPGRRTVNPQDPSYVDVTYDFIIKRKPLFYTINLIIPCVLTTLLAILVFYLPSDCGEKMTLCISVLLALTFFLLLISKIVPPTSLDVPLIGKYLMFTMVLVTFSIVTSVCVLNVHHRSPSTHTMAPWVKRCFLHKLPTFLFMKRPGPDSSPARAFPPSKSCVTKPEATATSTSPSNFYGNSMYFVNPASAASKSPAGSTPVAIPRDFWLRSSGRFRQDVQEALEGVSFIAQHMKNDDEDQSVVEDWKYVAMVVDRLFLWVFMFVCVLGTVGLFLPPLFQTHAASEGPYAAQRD
Neuronal acetylcholine receptor; alpha3/beta4, sequence (P32297 whole entry): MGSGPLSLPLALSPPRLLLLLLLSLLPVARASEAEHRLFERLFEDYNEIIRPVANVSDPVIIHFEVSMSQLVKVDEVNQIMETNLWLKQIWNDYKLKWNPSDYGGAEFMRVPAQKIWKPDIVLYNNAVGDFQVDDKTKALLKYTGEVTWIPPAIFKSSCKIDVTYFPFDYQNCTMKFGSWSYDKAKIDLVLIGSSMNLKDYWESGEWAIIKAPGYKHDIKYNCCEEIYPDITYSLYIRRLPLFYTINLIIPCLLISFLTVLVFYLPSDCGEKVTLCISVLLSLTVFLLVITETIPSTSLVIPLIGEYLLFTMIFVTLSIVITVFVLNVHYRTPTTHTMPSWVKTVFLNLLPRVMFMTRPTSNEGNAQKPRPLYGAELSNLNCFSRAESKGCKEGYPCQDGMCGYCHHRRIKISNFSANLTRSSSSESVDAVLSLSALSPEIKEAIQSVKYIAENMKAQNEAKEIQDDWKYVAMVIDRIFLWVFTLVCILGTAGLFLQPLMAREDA
Neuronal acetylcholine receptor; alpha4/beta2, sequence (P09483 whole entry): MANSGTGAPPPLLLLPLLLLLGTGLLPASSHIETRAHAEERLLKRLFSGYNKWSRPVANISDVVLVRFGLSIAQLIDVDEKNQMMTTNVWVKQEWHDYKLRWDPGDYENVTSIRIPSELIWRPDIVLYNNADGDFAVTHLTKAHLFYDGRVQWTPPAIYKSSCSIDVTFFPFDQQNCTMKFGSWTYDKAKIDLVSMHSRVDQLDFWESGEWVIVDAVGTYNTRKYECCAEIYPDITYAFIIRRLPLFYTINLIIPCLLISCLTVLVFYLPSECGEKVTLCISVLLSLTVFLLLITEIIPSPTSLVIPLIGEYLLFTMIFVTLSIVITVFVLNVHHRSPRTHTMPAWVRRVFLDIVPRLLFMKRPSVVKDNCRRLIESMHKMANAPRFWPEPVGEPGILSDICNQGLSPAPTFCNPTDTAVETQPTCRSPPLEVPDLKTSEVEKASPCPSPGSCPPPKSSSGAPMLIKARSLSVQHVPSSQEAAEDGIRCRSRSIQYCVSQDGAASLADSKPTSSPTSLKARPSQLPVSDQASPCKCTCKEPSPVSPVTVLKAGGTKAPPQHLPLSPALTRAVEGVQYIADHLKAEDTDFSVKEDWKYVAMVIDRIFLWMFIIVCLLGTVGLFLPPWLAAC
Neuronal acetylcholine receptor; alpha4/beta2, sequence (P12390 whole entry): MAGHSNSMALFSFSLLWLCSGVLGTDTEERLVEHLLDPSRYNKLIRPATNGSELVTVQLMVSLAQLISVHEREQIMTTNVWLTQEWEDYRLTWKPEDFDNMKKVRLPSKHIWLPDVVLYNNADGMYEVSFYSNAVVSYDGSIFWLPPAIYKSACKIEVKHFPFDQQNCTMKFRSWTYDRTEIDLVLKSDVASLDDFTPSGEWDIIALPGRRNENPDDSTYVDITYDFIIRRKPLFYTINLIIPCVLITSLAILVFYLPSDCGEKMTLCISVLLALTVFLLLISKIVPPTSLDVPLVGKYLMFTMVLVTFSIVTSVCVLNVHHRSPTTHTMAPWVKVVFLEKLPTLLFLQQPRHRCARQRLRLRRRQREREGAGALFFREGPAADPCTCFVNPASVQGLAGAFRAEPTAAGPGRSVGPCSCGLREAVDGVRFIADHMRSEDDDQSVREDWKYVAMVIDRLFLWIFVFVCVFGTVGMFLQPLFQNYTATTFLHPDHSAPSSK

In data set [1], `Cl.Clc1ccc(OC[C@@H]2C[C@H]3C[C@H]3N2)cn1` showed a Ki of over 10 µM. In the data set with Rattus norvegicus, the Time was 155.9 s. Besides, in data set [2], the EC50 worked out at 259 µM. For the same molecule, the Papp in data set [3] worked out at 68.8 ×10⁻⁶ cm/s. Further, the Activity result in the data set on Bone marrow cell is reported as “Non-Toxic”; on Cytochrome P450 1A2, “Not Active”. In addition, the “inhibition (INH)” value in data set [4] and in data set [5] was “Not Active” in each case.

For the origin of these results see ChEMBL document CHEMBL4602676, “Discovery and Development of 3-(6-Chloropyridine-3-yloxymethyl)-2-azabicyclo[3.1.0]hexane Hydrochloride (SUVN-911): A Novel, Potent, Selective, and Orally Active Neuronal Nicotinic Acetylcholine α4β2 Receptor Antagonist for the Treatment of Depression” (J Med Chem, 2020).
